Measured values as given in US20110015208A1, “PHARMACEUTICAL COMPOSITIONS CONTAINING DOPAMINE RECEPTOR LIGANDS AND METHODS OF TREATMENT USING DOPAMINE RECEPTOR LIGANDS” (priority 2007, published 2011).
Counter-ions that a name gives are not always drawn.

Tests used:
[1] = system: d-amphetamine/chlordiazepoxide mixture (AMPH/CDP)-induced hyperactivity in mice; assay: d-Amphetamine/chlordiazepoxide (AMPH/CDP) hyperactivity test (Example 4A); format: in vivo, mouse; details: for Total Distance Traveled [mean ± SEM]: test condition AMPH/CDP, 60 min pretreatment
Method: Cariprazine hydrochloride and escitalopram oxalate were evaluated for anti-manic effects using the amphetamine/chlordiazepoxide (AMPH/CDP) hyperactivity test.
Male C57B1/6J mice from Jackson Laboratories (Bar Harbor, Me.) were used in this study. Mice were received at 6-weeks of age. Upon receipt, mice were assigned unique identification numbers (tail marked) and were group housed with 4 mice/cage. All animals remained housed in groups of four during the remainder of the study. All mice were acclimated to the colony room for at least two weeks prior to testing and were subsequently tested at an average age of 8 weeks of age. During the period of acclimation, mice were examined on a regular basis, handled, and weighed to assure adequate health and suitability. Mice were maintained on a 12/12 light/dark cycle. The room temperature was maintained between 20 and 23° C. with a relative humidity maintained between 30% and 70%. Chow and water were provided ad libitum for the duration of the study. In each test, animals were randomly assigned across treatment groups.
d-Amphetamine sulfate (Sigma, 4.0 mg/kg) and chlordiazepoxide (CDP; Sigma, 2.5 mg/kg) were dissolved in sterile water and were administered intraperitoneally at a dose volume of 10 ml/kg.
Distance traveled is measured by consecutive beam breaks.
Data was analyzed by analysis of variance (ANOVA) followed by Fisher PLSD post-hoc analysis when appropriate. An effect was considered significant if p<0.05. Outliers that fell above and below two standard deviations from the mean were removed from the final analysis.

[2] = system: extracellular acetylcholine (ACh) in the frontal cortex; assay: Dual-probe microdialysis, acetylcholine in frontal cortex of freely-moving rats; format: in vivo, rat; details: for change in basal ACh levels compared to vehicle+saline-treated controls: escitalopram oxalate 1.0 mg/kg sc
Method: (§1) A dual-probe microdialysis study was conducted to determine the effects of oral administration of cariprazine hydrochloride, alone and in combination with escitalopram oxalate (administered subcutaneously), on extracellular concentrations of acetylcholine (ACh), dopamine (DA) and serotonin (5-HT) in the frontal cortex of freely-moving rats.
(§2) Experiments were carried out in male Sprague Dawley rats (250-350 g body weight; Charles River, UK). Animals were housed in groups of six on a 12 h/12 h light/dark cycle (lights on at 07.30 h), at an ambient temperature of 21±2° C. and 55±20% humidity. Food and water were available ad libitum. Animals were allowed to acclimatise to these conditions for at least 5 days prior to the study.
Rats were anaesthetised with isoflurane (5% to induce, 2% to maintain) in an O2/N2O (1 litre/min each) mixture delivered via an anaesthetic unit (St Bernard Medical Services, UK). Concentric microdialysis probes with 2 mm exposed polyarylethersulphone (PAES) membrane tip (CMA) were stereotaxically implanted bilaterally into the prefrontal cortex (coordinates: AP: +3.2 mm; L: +/−2.5 mm relative to bregma; V: −4.0 mm relative to the skull surface; taken from the stereotaxic atlas of Paxinos and Watson (Paxinos G, Watson C., The Rat Brain in Stereotaxic Coordinates, 2nd Edition, London: Academic Press, 1986). The upper incisor bar was set at 3.3 mm below the interaural line so that the skull surface between bregma and lambda was horizontal. The coordinates for each probe were identical from bregma except for the lateral measurement as one probe was placed to the left of the midline and the other to the right. Samples were measured from the same side in each rat (e.g. left probe was used to measure ACh and right probe was used to measure DA and 5-HT). Additional burr holes were made for skull screws (stainless steel) and the probes were secured using dental cement. […]

[3] = system: extracellular dopamine (DA) in the frontal cortex; assay: Dual-probe microdialysis, dopamine in frontal cortex of freely-moving rats; format: in vivo, rat
Method: as §1, §2
(§3) Rats were anaesthetised with isoflurane (5% to induce, 2% to maintain) in an O2/N2O (1 litre/min each) mixture delivered via an anaesthetic unit (St Bernard Medical Services, UK). […] Samples were measured from the same side in each rat (e.g. left probe was used to measure ACh and right probe was used to measure DA and 5-HT). […]

[4] = system: chronic mild stress (CMS) model of depression; assay: Chronic mild stress (CMS) model of depression, sucrose consumption (Example 2); format: in vivo, rat
Description: This study evaluated the antidepressant effect of cariprazine hydrochloride in the chronic mild stress (CMS) model of depression. A comparison to the efficacy of the tricyciclic antidepressant compound imipramine was also made.
Male Wistar rats were adapted to laboratory and housing conditions for 3 weeks, followed by adoption to consumption of 1% sucrose solution for an additional 5 weeks before being separated into control and to-be-stressed groups.
Chronic stress was applied to the allocated group for seven weeks. The following stressors were used: food and/or water deprivation, cage tilting (45 degrees backwards), intermittent illumination, paired housing, soiled cage (250 mL of tap water in sawdust bedding), stroboscopic illumination (150 flashed per minute), no stress. All stressors were 10-14 hours in duration and were applied individually and continuously, once or twice weekly, during the day and at night.
Consumption of sucrose solution was measured in 1-hour tests conducted on all animals (i.e., controls and stressed) once weekly throughout the entire experiment. The tests were preceded by 14 hours of food and water deprivation. On the basis of their sucrose intakes following the initial 2 weeks of stress, both stressed and control animals received once-daily chronic (5 weeks) IP injections of vehicle (1% methyl cellulose, 1 mL/kg), cariprazine hydrochloride (0.0625, 0.25 or 1.0 mg/kg), or imipramine (10 mg/kg) as reference treatment. […] These animals were considered weak responders/non-responders and were eliminated from the analysis.

[5] = system: extracellular serotonin (5-HT) in the frontal cortex; assay: Dual-probe microdialysis, serotonin in frontal cortex of freely-moving rats; format: in vivo, rat
Method: as §1, §2, §3

[6] = system: basal locomotor activity of mice; assay: Open field, basal locomotor activity of mice (Example 4A); format: in vivo, mouse
[7] = cariprazine hydrochloride alone 0.03, 0.1 and 0.3 mg/kg po
[8] = cariprazine hydrochloride 1 mg/kg IP once daily
[9] = cariprazine hydrochloride 0.065 and 0.25 mg/kg IP once daily, 5 weeks
[10] = escitalopram oxalate 1.0 mg/kg sc

**Q.** Which “effect on mixture-induced hyperactivity” value ([1]; cariprazine hydrochloride 0.10 and 0.30 mg/kg oral) does the source give for CN(C)C(=O)N[C@H]1CC[C@H](CCN2CCN(c3cccc(Cl)c3Cl)CC2)CC1 [Cariprazine hydrochloride, trans-4-{2-[4-(2,3-dichlorophenyl)-piperazin-1-yl]-ethyl}-N,N-dimethylcarbamoyl-cyclohexylamine hydrochloride] here?
**A.** Its value is “significantly decreased”.

**Q.** What about the “Total Distance Traveled [mean ± SEM]” value ([1]; 0.03 mg/kg oral) of the same compound?
**A.** The value was 32122 ± 2942 cm/60 min.

**Q.** What about the “Total Distance Traveled [mean ± SEM]” value ([1]; 0.10 mg/kg oral) of the same compound?
**A.** Its value is 13688 ± 2349 cm/60 min.

**Q.** And the “Total Distance Traveled [mean ± SEM]” value ([1]; 0.30 mg/kg oral)?
**A.** Its value is 2525 ± 204 cm/60 min.

**Q.** What about the “efflux of ACh in the frontal cortex” value [2, 7] of the same compound?
**A.** Its value is “no significant effect”.

**Q.** What about the “efflux of DA in the frontal cortex” value [3, 7] of the same compound?
**A.** The value was “no significant effect”.

**Q.** What about the “onset of action: increases in sucrose drinking evident at” value ([4]; cariprazine hydrochloride 0.065 mg/kg IP once daily, stressed animals) of the same compound?
**A.** The value was 1 Week.

**Q.** What about the sedation ([4]; cariprazine hydrochloride 1 mg/kg IP) of the same compound?
**A.** Its sedation is “strongly sedative dose”.

**Q.** What about the “sucrose consumption in control animals” value [4, 8] of the same compound?
**A.** The value was “significantly decreased”.

**Q.** What about the “sucrose intake in stressed animals” value [4, 8] of the same compound?
**A.** Its value is “did not change”.

**Q.** What about the “activity in the CMS model” value ([4]; cariprazine hydrochloride 1 mg/kg IP once daily (highest dose)) of the same compound?
**A.** The value was “inactive”.

**Q.** What about the “sucrose drinking in controls (non-stressed)” value [4, 9] of the same compound?
**A.** Its value is “without any significant effect”.

**Q.** And the “sucrose drinking in stressed animals” value [4, 9]?
**A.** The value was “dose-dependently increased sucrose drinking”.

**Q.** What about the “magnitude of effect on sucrose drinking relative to imipramine” value ([4]; most active dose 0.065 mg/kg IP vs imipramine 10 mg/kg IP) of the same compound?
**A.** The value was “greater than that of imipramine”.

**Q.** And the “efflux of 5-HT in the frontal cortex” value [5, 7]?
**A.** Its value is “no significant effect”.

**Q.** What does the source list for CN(C)CCC[C@@]1(c2ccc(F)cc2)OCc2cc(C#N)ccc21 [Escitalopram oxalate, 1-[3-(dimethyl-amino)propyl]-1-(p-fluorophenyl)-5-phthalancarbonitrile]?
**A.** effect on basal activity compared to water-treated mice ([6]; escitalopram oxalate 0.5, 2.0 and 5.0 mg/kg oral): Neither valproate nor escitalopram oxalate (0.5, 2.0, and 5.0 mg/kg) had a significant effect; Total Distance Traveled [mean ± SEM] ([6]; test condition water, 2.0 mg/kg oral, 60 min pretreatment): 5939 ± 369 cm/60 min; effect on mixture-induced hyperactivity ([1]; escitalopram oxalate 0.5 mg/kg oral): trend toward a significant decrease; effect on mixture-induced hyperactivity ([1]; escitalopram oxalate 5.0 mg/kg oral): increased; Total Distance Traveled [mean ± SEM] ([1]; 0.50 mg/kg oral): 30067 ± 1901 cm/60 min; Total Distance Traveled [mean ± SEM] ([1]; 2.0 mg/kg oral): 36112 ± 1934 cm/60 min; Total Distance Traveled [mean ± SEM] ([1]; 5.0 mg/kg oral): 39639 ± 1582 cm/60 min; change in basal ACh levels compared to vehicle+saline-treated controls ([2]; 100 min post-administration): −55%; change in basal ACh levels compared to vehicle+saline-treated controls ([2]; 240 min post-administration): −56%; basal DA levels [3, 10]: no effect; basal 5-HT levels [5, 10]: no effect
